Test results as given in patent publication US5216156A, “Non-migrating 1-hydrocarbyloxy-2,2,6,6-tetramethylpiperidine 1,3,5-triazine derivatives” (Ciba-Geigy Corporation, priority 1992, dated 1993).

Legend:
[1] = Hindered amine basicity (pKa); type: physicochemical; settings: Table 1; N-substituted derivatives of 4-hydroxy-2,2,6,6-tetramethylpiperidine
Description: There are clear advantages in using the hindered amine compounds having 1-hydrocarbyloxy substitution. In certain polymer systems, there is a definite advantage in using a less basic stabilizer. For example, the cure of acid-catalyzed thermoset melamine crosslinked automotive coatings systems can be severely retarded by an interaction between the acid catalyst and a basic hindered amine stabilizer.

[2] = Extraction of stabilizer from polyester polyurethane refinish enamel film by refluxing toluene, GC (Example 75); settings: 2% by weight on resin solids, film baked 30 minutes at 60° C., stored one month, refluxing toluene one hour
Procedure: A polyester polyurethane refinish enamel is prepared from a polyester resin (DESMOPHEN® 670A-80, Mobay) and a polyurethane resin (DESMODUR® N-75, Mobay) in a ratio of 1.0:1.1 equivalents, with 1% DABCO® T-12 […] as catalyst. The enamel is stabilized with 2% by weight, based on resin solids, of various hindered amine stabilizers. The stabilized enamel is spray applied to a thickness of 1.8-2.0 mils (0.0457-0.0508 mm) onto glass plates and baked for 30 minutes at 140° F. (60° C.). After storage for one month in an air-conditioned room, the films are removed from the glass plates and placed in a round-bottomed flask and then extracted with refluxing toluene for one hour. The films are then removed and the toluene is analyzed for any stabilizer extracted by gas chromatography.
If the stabilizer is chemically bonded to the polymer film, little if any of the stabilizer is extracted by the refluxing toluene.

[3] = Extraction of stabilizer from high solids thermoset acrylic enamel film by refluxing toluene, GC (Example 78); settings: refluxing toluene one hour; for Percent Stabilizer Extracted: 1% by weight on resin solids, baked 30 minutes at 121° C., stored one week, GC; for extraction of stabilizer from the stabilized enamel: in words, thermoset acrylic enamel
Description: A model high solids thermoset acrylic enamel based on a binder of 60% of a polymer comprising monomers such as 2-hydroxyethyl acrylate, butyl acrylate, butyl methacrylate, styrene and acrylic acid, and 40% of a melamine resin with an acid catalyst such as p-toluenesulfonic acid is formulated and stabilized with 1% by weight, based on resin solids, of a variety of hindered amine stabilizers.
This enamel is spray applied to a thickness of 1.8-2.0 mils (0.0457-0.0508 mm) onto glass plates and baked for 30 minutes at 250° F. (121° C.). After storage for one week in an air-conditioned room, the films are removed from the glass plates and placed in a round-bottomedflask and extracted with refluxing toluene for one hour. After one hour, the films are removed and the toluene extract is analyzed for extracted stabilizer by gas chromatography.

CN1C(C)(C)CC(O)CC1(C)C [N--Me]
pKa [1]: 10.0

CC1(C)CC(O)CC(C)(C)N1 [N--H, 4-hydroxy-2,2,6,6-tetramethylpiperidine]
pKa [1]: 10.0

CCCCCCCCON1C(C)(C)CC(N(CCCC)c2nc(NCCO)nc(N(CCCC)C3CC(C)(C)N(OCCCCCCCC)C(C)(C)C3)n2)CC1(C)C [Example 2, 2-[(2-Hydroxyethyl)amino]-4,6-bis[N-(1-octyloxy-2,2,6,6-tetramethylpiperidin-4-yl)butylamino]-1,3,5-triazine]
Percent Stabilizer Extracted [2]: 0% | Percent Stabilizer Extracted [3]: 0% | extraction of stabilizer from the stabilized enamel [3]: resist extraction from the stabilized enamel

CON1C(C)(C)CC(O)CC1(C)C [N--OMe]
pKa [1]: 4.8

CCCCN(c1nc(NCCCCCC(=O)O)nc(N(CCCC)C2CC(C)(C)N(OC3CCCCC3)C(C)(C)C2)n1)C1CC(C)(C)N(OC2CCCCC2)C(C)(C)C1 [Example 15, N-{4,6-Bis[(1-cyclohexyloxy-2,2,6,6-tetramethylpiperidin-4-yl)butylamino]-1,3,5-triazin-2-yl}-6-aminohexanoic acid]
Percent Stabilizer Extracted [2]: 23%

CCCCCCCCON1C(C)(C)CC(N(CCCC)c2nc(NCCCCCC(=O)O)nc(N(CCCC)C3CC(C)(C)N(OCCCCCCCC)C(C)(C)C3)n2)CC1(C)C [Example 16, N-{4,6-Bis[(1-octyloxy-2,2,6,6-tetramethylpiperidin-4-yl)butylamino]-1,3,5-triazin-2-yl}-6-aminohexanoic acid]
Percent Stabilizer Extracted [2]: 21%

CCCCCCCCON1C(C)(C)CC(OC(=O)CCCCCCCCC(=O)OC2CC(C)(C)N(OCCCCCCCC)C(C)(C)C2)CC1(C)C [HA 1, bis(1-octyloxy-2,2,6,6-tetramethylpiperidin-4-yl) sebacate, reference compound]
Percent Stabilizer Extracted [2]: 100% | Percent Stabilizer Extracted [3]: 100%

CCCCN(c1nc(NCCO)nc(N(CCCC)C2CC(C)(C)N(OC3CCCCC3)C(C)(C)C2)n1)C1CC(C)(C)N(OC2CCCCC2)C(C)(C)C1 [Example 1, 2-[(2-Hydroxyethyl)amino]-4,6-bis[N-(1-cyclohexyloxy-2,2,6,6-tetramethylpiperidin-4-yl)-butylamino]-1,3,5-triazine]
Percent Stabilizer Extracted [2]: 0% | Percent Stabilizer Extracted [3]: 0% | extraction of stabilizer from the stabilized enamel [3]: resist extraction from the stabilized enamel
